# In PMC9338942, “(+)-Usnic acid and its salts, inhibitors of SARS‐CoV‐2, identified by using in silico methods and in vitro assay” (Scientific Reports, 2022):
# pIC50: −log10 of the molar value. Read-outs that look alike come from different tables or passages of the source.
# Assays:
# [1] = tested on: SARS-CoV-2 (βCoV/Korea/KCDC/2020); assay: microbe, parasite or virus in culture; format: cell-based; conditions: for pIC50: vero cells, immunofluorescence; for inhibition at 10 µM: single concentration 10 μM, read-out: Inhibition of infection (%)
# vero cells = conditions: for Cell number to mock (%): single concentration 10 μM; for CC50: vero cells
# in vitro = conditions: African green monkey
# SARS-CoV-2 pseudovirions = conditions: at 30 μM; cited from earlier work
# SARS-CoV-2 = conditions: read-out: IC50, in vitro antiviral efficacy against SARS-CoV-2; cited from earlier work
# COVID-19 [2] = tested on: COVID-19; design: method as in PMID 34480861; conditions: phase 3 clinical trial; cited from earlier work
# SARS-CoV = conditions: mice, 30 mg/kg; cited from earlier work
# COVID-19 [3] = tested on: COVID-19; design: method as in PMID 33903855; conditions: cited from earlier work
# [4] = Severe acute respiratory syndrome coronavirus 2, original SARS-CoV-2 strain
# [5] = Severe acute respiratory syndrome coronavirus 2
# [6] = CC50, vero cells, assay with Alpha var (B.1.1.7)
# [7] = CC50, vero cells, assay with Beta var (B.1.351)
# [8] = CC50, vero cells, assay with Delta var (B.1.617.2)
# [9] = CC50, vero cells, assay with original SARS-CoV-2 strain
# [10] = assay with original SARS-CoV-2 strain
# [11] = assay with Delta var (B.1.617.2)
compound,measurement,setting,value
"CC(=O)c1c(O)c(C)c(O)c2c1OC1=CC(=O)C(C(C)=O)C(=O)[C@@]12C (single isomer, unassigned; (+)) [(+)-usnic acid]",SI (selectivity index),[1],6.26
same,pIC50,[1]; [4],5.10
same,inhibition at 10 µM,[1]; [5],61.6%
same,Cell number to mock (%),vero cells,94.69%
same,CC50,in vitro; [6],34.8 µM
same,CC50,in vitro; [7],32.4 µM
same,CC50,in vitro; [8],> 50 µM
same,CC50,in vitro; [9],> 50 µM
CCOC(=O)[C@H]1O[C@@H]1C(=O)N[C@@H](CC(C)C)C(=O)NCCC(C)C [Aloxistatin],reduction of cell entry of SARS-CoV-2 pseudovirions,SARS-CoV-2 pseudovirions,92.5%
Cc1ccc(N)cc1C(=O)N[C@H](C)c1cccc2ccccc12 [GRL0617],pIC50,SARS-CoV-2,5.68
"CC(=O)C1=C(O)[C@]2(C)C(=CC1=O)Oc1c(C(C)=O)c(O)c(C)c(O)c12 [KU, potassium usnate]",pIC50,[1]; original SARS-CoV-2 strain,5.12
same,CC50,vero cells; [10],> 50 µM
"COC1=CC(=O)[C@@]2(C)c3c(O)c(C)c(O)c(C(C)=O)c3O[C@@]2(OC)C1 [Mycousfuran A, (4aS,9bR)-6-acetyl-7,9-dihydroxy-3,4a-dimethoxy-8,9b-dimethyl-4H-dibenzofuran-1-one]",inhibition at 10 µM,[1]; [5],0.96%
same,Cell number to mock (%),vero cells,109.23%
"CC(=O)C1=C(O)C=C2Oc3c(C(C)=O)c(O)c(C)c(O)c3[C@]2(C)C1=O [NaU, sodium usnate]",pIC50,[1]; original SARS-CoV-2 strain,5.27
same,CC50,vero cells; [10],> 50 µM
"C[C@]12C[C@@]34C=CC(=O)[C@@](C)(CCC(=O)Nc5c(O)ccc(C(=O)O)c5O)[C@@H]3[C@H](C[C@@H]1C4)O2 [Platensimycin, 3-[[3-[(1S,3S,4S,5aS,9S,9aR)-1,4,5,8,9,9a-Hexahydro-3,9-dimethyl-8-oxo-3H-1,4:3,5a-dimethano-2-benzoxepin-9-yl]-1-oxopropyl]amino]-2,4-dihydroxybenzoic acid]",inhibition at 10 µM,[1]; [5],3.16%
same,Cell number to mock (%),vero cells,109.23%
"CO[C@H]1[C@H](O)[C@@H](O)[C@H](n2c3c(Cl)cccc3c3c4c(c5c6cccc(Cl)c6[nH]c5c32)C(=O)NC4=O)O[C@@H]1CO [Rebeccamycin, 1,11-Dichloro-12,13-dihydro-12-(4-O-methyl-β-D-glucopyranosyl)-5H-indolo[2,3-a]pyrrolo[3,4-c]carbazole-5,7(6H)-dione]",inhibition at 10 µM,[1]; [5],10.6%
same,Cell number to mock (%),vero cells,72.32%
"CCS(=O)(=O)N1CC(CC#N)(n2cc(-c3ncnc4[nH]ccc34)cn2)C1 [barcitinib, Barcitinib]",reduction of 28-day mortality rate compared to placebo,COVID-19 [2],38.2%
CN(C)C(=O)COC(=O)Cc1ccc(OC(=O)c2ccc(NC(=N)N)cc2)cc1 [camostat mesilate],survival level,SARS-CoV,above 60%
same,efficacy in clinical trials for the treatment of COVID-19,COVID-19 [3],did not show any particular efficacy
CCN(CC)CCCC(C)Nc1ccnc2cc(Cl)ccc12 (centres unmarked) [chloroquine],pIC50,[1]; [4],4.94
same,CC50,vero cells; assay with Beta var (B.1.351),> 150 µM
same,CC50,vero cells; [11],> 150 µM
same,CC50,in vitro,> 150 µM
Cc1cccc(C)c1OCC(=O)N[C@@H](Cc1ccccc1)[C@@H](O)C[C@H](Cc1ccccc1)NC(=O)[C@H](C(C)C)N1CCCNC1=O [lopinavir],SI (selectivity index),[1],4.24
same,pIC50,[1]; [4],4.93
same,CC50,in vitro; [6],> 50 µM
same,CC50,in vitro; [7],> 50 µM
same,CC50,in vitro; [8],> 50 µM
same,CC50,in vitro; [9],> 150 µM
CCC(CC)COC(=O)[C@H](C)N[P@](=O)(OC[C@H]1O[C@@](C#N)(c2ccc3c(N)ncnn23)[C@H](O)[C@@H]1O)Oc1ccccc1 [remdesivir],pIC50,[1]; [4],5.13
same,SI (selectivity index),[1]; original SARS-CoV-2 strain,6.74
same,CC50,vero cells; assay with Beta var (B.1.351),> 50 µM
same,CC50,vero cells; [11],> 50 µM
same,CC50,in vitro,> 50 µM
